For assay [1], the target named is T1, α2-adrenoceptor (Rattus norvegicus, UniProt P22909).
T1 construct: from tissue; host or cells: rat vas deferens
T1 sequence (P22909 1-465): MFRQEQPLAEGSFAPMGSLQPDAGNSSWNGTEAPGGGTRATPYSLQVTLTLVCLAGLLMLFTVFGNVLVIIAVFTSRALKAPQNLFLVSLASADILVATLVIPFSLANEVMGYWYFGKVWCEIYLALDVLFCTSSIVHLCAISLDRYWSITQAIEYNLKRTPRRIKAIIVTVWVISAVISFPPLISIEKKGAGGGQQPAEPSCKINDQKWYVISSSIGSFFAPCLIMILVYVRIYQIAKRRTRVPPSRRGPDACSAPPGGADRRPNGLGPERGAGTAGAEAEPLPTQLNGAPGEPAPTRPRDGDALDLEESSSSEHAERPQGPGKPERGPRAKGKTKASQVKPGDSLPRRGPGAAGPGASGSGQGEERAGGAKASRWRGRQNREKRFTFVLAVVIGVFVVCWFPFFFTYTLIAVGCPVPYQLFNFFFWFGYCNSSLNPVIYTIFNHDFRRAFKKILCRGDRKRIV
Kind of assay: α2-adrenoceptor antagonistic activity on the rat field stimulated vas deferens preparation (clonidine as agonist). Particulars: antagonism of clonidine, 37°, 90 min after introduction of antagonist, Arunlakshana & Schild, read-out: pA2 (α2) (converted). The method, then:
The compounds of the invention were tested for α2 -adrenoceptor antagonistic activity on the rat field stimulated vas deferens preparation using a modification of the method of Drew, Eur. J. Pharmac., 1977, 42, 123-130. The procedure is described below.
Desheathed vasa deferentia from sexually mature rats were suspended in a 6 ml organ bath in Krebs solution at 37° and bubbled with 5% CO2 in oxygen. Platinum ring electrodes were positioned above and below the tissue for field stimulation, The stimulus parameters being 0.1 Hz 1 ms pulse width at supramaximal voltage. Twitch responses were recorded isotonically with a 0.5 g loading. Clonidine hydrochloride was used as the α-adrenoceptor agonist and cumulative concentration-response curves were constructed for the inhibition of twitch obtained with clonidine in the range 0.125 to 4 ng ml^-1. After washing out clonidine, the twitch response quickly recovered and an antagonist was then introduced into the Krebs reservoir. Clonidine concentration-response curves were repeated 90 min after introduction of the antagonist. The concentration of clonidine producing 50% inhibition of twitch before and after introduction of antagonist were obtained and the dose-ratio for clonidine was calculated. Various concentrations of the antagonists were used.
Chemother., 1959, 14, 48-58 and the values of pA2 and slope were calculated.

The target of assay [2] is T2, α1-adrenoceptor (Rattus norvegicus, UniProt P43140).
T2 construct: One method involves assessing the activity on the isolated anococcygeus muscle of the rat; from tissue; host or cells: rat anococcygeus muscle
T2 sequence (P43140 1-466): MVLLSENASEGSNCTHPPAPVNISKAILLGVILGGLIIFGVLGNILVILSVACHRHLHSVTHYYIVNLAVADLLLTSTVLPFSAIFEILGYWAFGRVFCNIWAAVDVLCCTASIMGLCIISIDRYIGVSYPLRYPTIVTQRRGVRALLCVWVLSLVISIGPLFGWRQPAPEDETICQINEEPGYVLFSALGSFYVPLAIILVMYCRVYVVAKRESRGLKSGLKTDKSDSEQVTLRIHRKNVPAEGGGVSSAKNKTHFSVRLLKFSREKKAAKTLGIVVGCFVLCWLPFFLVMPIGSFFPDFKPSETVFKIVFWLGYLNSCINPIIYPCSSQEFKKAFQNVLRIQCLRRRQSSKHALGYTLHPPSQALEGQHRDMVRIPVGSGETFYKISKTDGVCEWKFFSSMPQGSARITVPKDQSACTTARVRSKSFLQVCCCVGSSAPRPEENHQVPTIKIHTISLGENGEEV
Kind of assay: α1 antagonistic activity on the isolated anococcygeus muscle of the rat (phenylephrine or methoxamine as agonist). The note with it: antagonism of phenylephrine or methoxamine, rat anococcygeus muscle, 37°, 30 min equilibration, 10^-6 to 10^-4 M; Arunlakshana & Schild; read-out: pA2 (α1) (converted). The source says:
(§1) The compounds of the invention antagonise the α2 -adrenoceptors to a much greater extent than the α1 -adrenoceptors. The α1 antagonistic activity can be evaluated by a number of different methods. One method involves assessing the activity on the isolated anococcygeus muscle of the rat. The method is based on that of Gillespie, Br.J.Pharmac., 1972, 45, 404-416. In the procedure male rats (250-360 g) are killed by a blow on the head and bled. The two anococcygeus muscles are removed from their position in the midline of the pelvic cavity, where they arise from the upper coccygeal vertebrae. The muscles are suspended in 5 ml organ baths in Krebs solution containing 10^-4 M ascorbic acid, to prevent drug oxidation. The tissues are gassed with a 95% oxygen, 5% CO2 mixture and maintained at 37°. Longitudinal muscle contractions are recorded using isotonic transducers. Cumulative dose response curves are then obtained to phenylephrine or in some cases methoxamine, both agents being […] alpha adrenoceptor agonists. The concentration range of phenylephrine or methoxamine used is 0.02 to 0.8 μg.ml^-1. The agonist is then washed from the bath and the test drug added to the bathing medium at a concentration of 10^-6 M. After 30 min equilibration with the test drug a further agonist dose response curve is obtained. The washing, equilibration and agonists dosing procedures are then repeated using 10^-5 M and 10^-4 M solutions of the test drug. Estimates of the pA2 value for the test drug as an antagonist of phenylephrine or methoxamine were made from the agonist dose-ratios using the method of Arunlakshana & Schild, Br.J.Pharmac. Chemother., 1959, 14, 48-58.

Assay [3] deals with α1-adrenoceptor. The description is as above. The note with it: antilog of (α2 pA2-α1 pA2).
Text: as §1

The record followed here is patent US4481200A, “α2 -Adrenoceptor antagonistic benzoquinolizines” (John Wyeth & Brother, Limited, priority 1982, dated 1984).

In the case of `CNS(=O)(=O)N(C)[C@@H]1CCN2CCc3ccccc3[C@@H]2C1` (relative stereo) [Example 1, N-Methyl-N-(1,3,4,6,7,11bα-hexahydro-2H-benzo[a]quinolizin-2β-yl)-N'-methylsulphamide], the Kb in assay [1] was 36.3 nM; in assay [2] it was 646 nM. In assay [3], this molecule showed a α2/α1 selectivity of 18.
The corresponding values for `CN(C)S(=O)(=O)N(C)[C@@H]1CCN2CCc3ccccc3[C@@H]2C1` (relative stereo) [Example 2, N,N,N'-Trimethyl-N'-[1,3,4,6,7,11bα-hexahydro-2H-benzo[a]quinolizin-2β-yl]sulphamide] are 39.8 nM, 1120 nM and 28.
Taken in the same sequence, the figures for `CC(C)NS(=O)(=O)N(C)[C@@H]1CCN2CCc3ccccc3[C@@H]2C1` (relative stereo) [Example 4, N-(i-Propyl)-N'-(1,3,4,6,7,11bα-hexahydro-2H-benzo[a]quinolizin-2β-yl)-N'-methylsulphamide] were 37.2 nM, 363 nM and 10.
The corresponding values for `CN(C)CCS(=O)(=O)N(C)[C@@H]1CCN2CCc3ccccc3[C@@H]2C1` (relative stereo) [Example 3, N-Methyl-N-(1,3,4,6,7,11bα-hexahydro-2H-benzo[a]quinolizin-2β-yl)-2-dimethylaminoethanesulphonamide] are 55 nM, 2510 nM and 46.
